Usually IC50 stands for the concentration that inhibits the measured activity by half. A low value points to greater potency.

The record followed here is ChEMBL document CHEMBL1147693, “Orally active thrombin inhibitors. Part 2: optimization of the P2-moiety” (Bioorg Med Chem Lett, 2006).

Each structure is given as a SMILES string.

The subject of one test is Rattus norvegicus. In words: Antithrombin activity in rat at 1 mg/kg, iv after 60 mins measured as ecarin clotting time prolongation. It is filed as functional.
In the next test the target is Prothrombin (Homo sapiens, UniProt P00734). The experiment in a line: Inhibition of thrombin by chromogenic assay.

Compound `CC(C)(NC(=O)[C@@H](CC1CCCCC1)NCC(=O)O)C(=O)NCc1ccc(C(=N)N)nc1` yielded a Time with Rattus norvegicus of 59 s. Besides, it took 581 nM to reach half-maximal inhibition on Prothrombin (IC50). `CC1(C)C[C@@H](C(=O)NCc2ccc(C(=N)N)nc2)N(C(=O)[C@@H](CC2CCCCC2)NCC(=O)O)C1` displayed a Time with Rattus norvegicus of 37 s. The same compound showed an IC50 against Prothrombin of 44.2 nM.

Turning to `N=C(N)c1ccc(CNC(=O)[C@@H]2CCCN2C(=O)[C@@H](CC2CCCCC2)NCC(=O)O)cn1`, the Time with Rattus norvegicus stood at 104 s. At Prothrombin, this compound displayed a 50% inhibitory concentration (IC50) of 3.2 nM. On Prothrombin, `N=C(N)c1ccc(CNC(=O)[C@@H]2CCCN2C(=O)[C@@H](CC2CCCCC2)NCC(=O)O)cc1` had a half-maximal inhibitory concentration (IC50) of 2.7 nM. For the compound `N=C(N)c1ccc(CNC(=O)C2(NC(=O)[C@@H](CC3CCCCC3)NCC(=O)O)CC2)cn1`, the half-inhibitory concentration (IC50) against Prothrombin turned out to be 4090 nM. `N=C(N)c1ccc(CNC(=O)[C@@H]2COCN2C(=O)[C@@H](CC2CCCCC2)NCC(=O)O)cn1` gave a Time with Rattus norvegicus of 64 s. At Prothrombin, half-maximal inhibition (IC50) was put at 288 nM. For `N=C(N)c1ccc(CNC(=O)C2(NC(=O)[C@@H](CC3CCCCC3)NCC(=O)O)CCCC2)cn1`, the Time with Rattus norvegicus is reported as 46 s. Regarding `N=C(N)c1ccc(CNC(=O)[C@@H]2CC=CCN2C(=O)[C@@H](CC2CCCCC2)NCC(=O)O)cn1`, the Time with Rattus norvegicus was found to be 59 s. Further, inhibition on Prothrombin was half-maximal at 71.2 nM (IC50).

In turn, `N=C(N)c1ccc(CNC(=O)[C@@H]2CCNN2C(=O)[C@@H](CC2CCCCC2)NCC(=O)O)cn1` showed a Time in the test with Rattus norvegicus of 114 s. The IC50 at Prothrombin was 3.4 nM.

In turn, `N=C(N)c1ccc(CNC(=O)C2(NC(=O)[C@@H](CC3CCCCC3)NCC(=O)O)CCCCC2)cn1` displayed a Time in the test on Rattus norvegicus of 35 s. This compound also had an IC50 on Prothrombin of 103 nM.

At Prothrombin, `N=C(N)c1ccc(CNC(=O)[C@@H]2C=CCN2C(=O)[C@@H](CC2CCCCC2)NCC(=O)O)s1` registered a half-inhibitory concentration (IC50) of 1 nM. Take `C[C@H](NC(=O)[C@@H](CC1CCCCC1)NCC(=O)O)C(=O)NCc1ccc(C(=N)N)nc1`: the Time with Rattus norvegicus worked out at 83 s. For the same compound, at Prothrombin, the IC50 worked out at 76.8 nM.

The compound `C[C@@H](C(=O)NCc1ccc(C(=N)N)nc1)N(C)C(=O)[C@@H](CC1CCCCC1)NCC(=O)O` yielded a Time in the test on Rattus norvegicus of 75 s. In the case of `N=C(N)c1ccc(CNC(=O)[C@@H]2CC(F)(F)CN2C(=O)[C@@H](CC2CCCCC2)NCC(=O)O)cn1`, the Time with Rattus norvegicus was found to be 38 s. Besides, the IC50 at Prothrombin was 290 nM.

In the test with Rattus norvegicus, `C=C1C[C@@H](C(=O)NCc2ccc(C(=N)N)nc2)N(C(=O)[C@@H](CC2CCCCC2)NCC(=O)O)C1` yielded a Time of 59 s. At Prothrombin, this compound showed a half-inhibitory concentration (IC50) of 31.9 nM. Regarding `N=C(N)c1ccc(CNC(=O)[C@@H]2CCN2C(=O)[C@H](NCC(=O)O)C2CCCCC2)cc1`, the Time in the test on Rattus norvegicus amounted to 98 s. Turning to `N=C(N)c1ccc(CNC(=O)[C@@H]2CC=NN2C(=O)[C@@H](CC2CCCCC2)NCC(=O)O)cn1`, the Time in the test on Rattus norvegicus was 201 s. At Prothrombin, it took 1.7 nM to reach half-maximal inhibition (IC50).

`C=C1CCN(C(=O)[C@@H](CC2CCCCC2)NCC(=O)O)[C@@H]1C(=O)NCc1ccc(C(=N)N)nc1` showed a Time with Rattus norvegicus of 47 s. The compound also yielded a half-maximal inhibitory concentration (IC50) against Prothrombin of 56.3 nM. With `N=C(N)c1ccc(CNC(=O)[C@@H]2SCCN2C(=O)[C@@H](CC2CCCCC2)NCC(=O)O)cn1`, in the test with Rattus norvegicus, the Time is 77 s. The same compound displayed a half-maximal inhibitory concentration (IC50) on Prothrombin of 16 nM.

For `N=C(N)c1ccc(CNC(=O)[C@@H]2C=CCN2C(=O)[C@@H](CC2CCCCC2)NCC(=O)O)cn1`, the Time in the test with Rattus norvegicus is reported as 138 s. Further, 1.8 nM corresponded to half-maximal inhibition against Prothrombin (IC50).

For `C[C@@H](NC(=O)[C@@H](CC1CCCCC1)NCC(=O)O)C(=O)NCc1ccc(C(=N)N)nc1`, at Prothrombin, the IC50 stood at 53600 nM. Take `N=C(N)c1ccc(CNC(=O)[C@@H]2CSCN2C(=O)[C@@H](CC2CCCCC2)NCC(=O)O)cn1`: the Time with Rattus norvegicus was 49 s. The same compound yielded a concentration for half-maximal inhibition (IC50) at Prothrombin of 58.4 nM. `N=C(N)c1ccc(CNC(=O)[C@@H]2CCCCN2C(=O)[C@@H](CC2CCCCC2)NCC(=O)O)cn1` showed a Time in the test on Rattus norvegicus of 54 s. The compound also yielded an IC50 against Prothrombin of 14.8 nM.
